Data taken from patent publication US6180637A, “1,2,5-trisubstituted 1,2-dihydroindazol-3-ones having anti-asthmatic, anti-allergic, anti-inflammatory, immunomodulating and neuroprotective action, process for their preparation and their use as medicaments” (Arzneimittelwerk Dresden GmbH, priority 1998, dated 2001).

What was measured:
human cyclophilin B = human cyclophilin B (Homo sapiens, UniProt P23284); assay: Peptidylprolyl isomerase (PPIase) activity inhibition assay; format: biochemical; conditions: 10 μM compound; 10 nmol Cyp B, preincubated at 4° C. for 15 minutes; test peptide Suc-Ala-Ala-Pro-Phe-Nan
human cyclophilin B, sequence (P23284 34-216): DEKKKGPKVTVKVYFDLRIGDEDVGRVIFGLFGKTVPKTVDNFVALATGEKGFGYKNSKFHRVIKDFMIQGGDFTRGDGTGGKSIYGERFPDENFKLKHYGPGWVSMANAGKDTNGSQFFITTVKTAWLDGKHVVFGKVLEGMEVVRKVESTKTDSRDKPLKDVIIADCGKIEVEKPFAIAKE
Method: For the initial screening (10 μmol/l), the inhibition of the human cyclophilin B in the PPIase test is determined.
Assay for the determination of the peptidylprolyl isomerase (PPIase) activity and inhibition
The PPIase activity is tested according to a globally customary enzyme test: G. Fischer, H. Bang, C. Mech, Biomed. Biochim. Acta 43 1101-1111; G. Fischer, H. Bang, A. Schellenberger, Biochim. Biophys. Acta 791 (1984), 87-97; D. H. Rich et al., J. Med. Chem. 38 (1995), 4164-4170.
The compounds of the general formula I according to the invention are preincubated at 4° C. for 15 minutes together with 10 nmol of Cyp B. The enzyme reaction is started using the test peptide Suc-Ala-Ala-Pro-Phe-Nan after addition of chymotrypsin and HEPES buffer. The extinction change at 390 nm is then monitored and evaluated. The photometrically determined extinction change results from two sub-reactions: a) the rapid chymotryptic cleavage of the trans-peptide; b) the non-enzymatic cis-trans isomerization, which is catalysed by cyclophilins.

[1] = system: pulmonary eosinophil infiltration; assay: Inhibition of late-phase eosinophilia 24 h after inhalational ovalbumin challenge in actively sensitized guinea-pigs; format: in vivo, guinea-pig; conditions: 2 × 30 mg/kg i.p. -2h/+4h, BAL 24 h after OVA challenge
Method: Inhibition of late-phase eosinophilia 24 h after inhalational ovalbumin challenge in actively sensitized guinea-pigs
The inhibition of pulmonary eosinophil infiltration by the substances is tested in an in vivo test on male Dunkin-Hartley guinea-pigs (200-250 g) sensitized against ovalbumin (OVA). The sensitization is carried out by means of two intraperitoneal injections of a suspension of 20 μg of OVA together with 20 mg of aluminium hydroxide as an adjuvant in 0.5 ml of physiological saline solution per animal on two successive days. 14 days after the second injection, the animals are pretreated with mepyramine maleate (10 mg/kg i.p.) in order to protect them from anaphylactic death. 30 minutes later, the animals are exposed for 30 sec in a plastic box to an OVA aerosol (0.5 mg/ml) which is generated by a nebulizer driven by compressed air (19.6 kPa) (allergen challenge). Control animals are nebulized with physiological saline solution. […] The eosinophils are stained using the Becton-Dickinson test kit (N. 5877) for eosinophils and counted in a Neubauer chamber. […]
The percentage inhibition of the eosinophilia of the test group treated with substance is calculated according to the following formula: […]

Row | inhibition at 10 µM (human cyclophilin B) [%] | SMILES | Inhibition [%] of eosinophilia ([1]; OVA-sensitized guinea-pigs) [%] | Eosinophils million/animal x ± s, B ([1]; group B (test group treated with substance)) [million/animal]
1 | 67 | COc1ccc2c(c1)c(=O)n(Cc1cc([N+](=O)[O-])ccc1O)n2S(=O)(=O)c1ccc(F)cc1 [Example 5, 1-(4-fluorobenzenesulphonyl)-2-(2-hydroxy-5-nitrobenzyl)-5-methoxy-1,2-dihydroindazol-3-one] | – | –
2 | 98 | CSc1ccc2c(c1)c(=O)n(Cc1cc([N+](=O)[O-])ccc1O)n2Cc1ccc(Cl)c(Cl)c1 [Example 26, 1-(3,4-Dichlorobenzyl)-2-(2-hydroxy-5-nitrobenzyl)-5-methylthio-1,2-dihydroindazol-3-one hydrate] | – | –
3 | 90 | COc1ccc2c(c1)c(=O)n(Cc1cc([N+](=O)[O-])ccc1O)n2S(=O)(=O)c1ccc(Cl)cc1 [Example 4, 2-(2-hydroxy-5-nitrobenzyl)-5-methoxy-1-(4-chloro-benzenesulphonyl)-1,2-dihydroindazol-3-one] | – | –

Further lines, the compound ahead of its results:

Row | SMILES | inhibition at 10 µM (human cyclophilin B) [%] | Inhibition [%] of eosinophilia ([1]; OVA-sensitized guinea-pigs) [%] | Eosinophils million/animal x ± s, B ([1]; group B (test group treated with substance)) [million/animal]
4 | COc1ccc2c(c1)c(=O)n(Cc1cc([N+](=O)[O-])ccc1O)n2S(=O)(=O)c1ccc(OC(F)(F)F)cc1 [Example 3, 2-(2-hydroxy-5-nitrobenzyl)-5-methoxy-1-(4-trifluoro-methoxybenzenesulphonyl)-1,2-dihydroindazol-3-one] | 93 | – | –
5 | COc1ccc(S(=O)(=O)n2c3ccc(OC)cc3c(=O)n2Cc2cc([N+](=O)[O-])ccc2O)cc1 [Example 1, 2-(2-Hydroxy-5-nitrobenzyl)-5-methoxy-1-(4-methoxybenzenesulphonyl)-1,2-dihydroindazol-3-one] | 70 | 97 | 0.51 ± 0.25
6 | COc1ccc2c(c1)c(=O)n(Cc1cc([N+](=O)[O-])ccc1O)n2S(=O)(=O)c1ccc(C)cc1 [Example 2, 2-(2-hydroxy-5-nitrobenzyl)-5-methoxy-1-(toluene-4-sulphonyl)-1,2-dihydroindazol-3-one] | 50 | – | –
